This assay deals with DBA/2 mice, P1534 leukemia ip, survival T/C. In words: NCI In Vivo Anticancer Drug Screen. Data for tumor model P1534 Leukemia (intraperitoneal) in DBA/2 mice. To be noted: endpoint: mean survival time, higher = longer survival. On the procedure:
The antitumor activity of compounds was measured in mice bearing transplantable tumors. Survival or tumor size were measured and the results are expressed as the measurement made in the treated group (T) divided by the measurement made in the vehicle treated control group (C). The tumor model used in this assay is P1534 Leukemia (intraperitoneal) in DBA/2 mice

[1] abbreviates: dose: 6.25 mg/kg/injection, schedule: Q01DX010 (ip), vehicle: saline.
Setting [2] is: dose: 2.0 mg/kg/injection, schedule: Q01DX010 (ip), vehicle: saline.
The mark [3] stands for this setting: dose: 4.0 mg/kg/injection, schedule: Q01DX010 (ip), vehicle: saline.
Where [4] appears, read: dose: 8.0 mg/kg/injection, schedule: Q01DX010 (ip), vehicle: saline.
The mark [5] stands for this setting: dose: 16.0 mg/kg/injection, schedule: Q01DX010 (ip), vehicle: saline.
The mark [6] stands for this setting: dose: 32.0 mg/kg/injection, schedule: Q01DX010 (ip), vehicle: saline.
[7] abbreviates: dose: 1.0 mg/kg/injection, schedule: Q01DX010 (ip), vehicle: saline.
[8] abbreviates: dose: 12.5 mg/kg/injection, schedule: Q01DX010 (ip), vehicle: saline.
Where [9] appears, read: dose: 25.0 mg/kg/injection, schedule: Q01DX010 (ip), vehicle: saline.
The mark [10] stands for this setting: dose: 50.0 mg/kg/injection, schedule: Q01DX010 (ip), vehicle: saline.
Where [11] appears, read: dose: 100.0 mg/kg/injection, schedule: Q01DX010 (ip), vehicle: saline.
The mark [12] stands for this setting: dose: 1.25 mg/kg/injection, schedule: Q01DX010 (ip), vehicle: saline.
Where [13] appears, read: dose: 2.5 mg/kg/injection, schedule: Q01DX010 (ip), vehicle: saline.
Setting [14] is: dose: 5.0 mg/kg/injection, schedule: Q01DX010 (ip), vehicle: saline.
Where [15] appears, read: dose: 37.5 mg/kg/injection, schedule: Q01DX010 (ip), vehicle: saline.
Where [16] appears, read: dose: 2.5 mg/kg/injection, schedule: Q01DX010 (sc), vehicle: saline.
Where [17] appears, read: dose: 5.0 mg/kg/injection, schedule: Q01DX010 (sc), vehicle: saline.
Where [18] appears, read: dose: 10.0 mg/kg/injection, schedule: Q01DX010 (sc), vehicle: saline.
Where [19] appears, read: dose: 62.5 mg/kg/injection, schedule: Q01DX010 (ip), vehicle: saline.
[20] abbreviates: dose: 125.0 mg/kg/injection, schedule: Q01DX010 (ip), vehicle: saline.
Setting [21] is: dose: 250.0 mg/kg/injection, schedule: Q01DX010 (ip), vehicle: saline.
Setting [22] is: dose: 15.6 mg/kg/injection, schedule: Q01DX010 (ip), vehicle: saline.
Where [23] appears, read: dose: 31.3 mg/kg/injection, schedule: Q01DX010 (ip), vehicle: saline.

Values joined by “and” are separate entries in the source; they are usually repeats but may differ in a detail not shown here. Equal values may be shown once. Toxic doses and inconclusive results are not listed.

As to `CN(N=O)C(=O)NC(C=O)C(O)C(O)C(O)CO` (stereo unspecified), the T/C is, setting by setting: (dose: 40.0 mg/kg/injection, schedule: Q01DX010 (ip), vehicle: saline) 122 % of control; (dose: 90.0 mg/kg/injection, schedule: Q01DX010 (ip), vehicle: saline) 100 % of control; (dose: 135.0 mg/kg/injection, schedule: Q01DX010 (ip), vehicle: saline) 86 % of control.

As for `O=NN(CCCl)C(=O)NCCCl`, the T/C reads like this: (dose: 1.57 mg/kg/injection, schedule: Q01DX010 (ip), vehicle: saline) 100 % of control and 103 % of control; (dose: 3.13 mg/kg/injection, schedule: Q01DX010 (ip), vehicle: saline) 103 % of control and 111 % of control; under setting [1], 100 % of control.

As for `NC(=O)c1ccc(N)nc1`, the T/C (dose: 3.0 mg/kg/injection, schedule: Q01DX010 (ip), vehicle: saline) is 90 % of control.

Turning to `C[C@@H]1CC[C@@]2(NC1)O[C@H]1C[C@H]3[C@@H]4CC=C5C[C@@H](O)CC[C@]5(C)[C@H]4CC[C@]3(C)[C@H]1[C@@H]2C`, the T/C (dose: 5.0 mg/kg/injection, schedule: Q01DX010 (sc), vehicle: steriod suspending solution) was 100 % of control; the T/C (dose: 10.0 mg/kg/injection, schedule: Q01DX010 (sc), vehicle: steriod suspending solution) was 106 % of control; the T/C (dose: 20.0 mg/kg/injection, schedule: Q01DX010 (sc), vehicle: steriod suspending solution) was 96 % of control; the T/C (dose: 40.0 mg/kg/injection, schedule: Q01DX010 (sc), vehicle: steriod suspending solution) is 93 % of control.

For `COc1cc([C@@H]2c3cc4c(c(O)c3C[C@H]3COC(=O)[C@@H]32)OCO4)cc(OC)c1OC`, the T/C (dose: 39.0 micrograms/kg/injection, schedule: Q01DX010 (ip), vehicle: saline) is 100 % of control; the T/C (dose: 78.0 micrograms/kg/injection, schedule: Q01DX010 (ip), vehicle: saline) was 103 % of control; the T/C (dose: 156.0 micrograms/kg/injection, schedule: Q01DX010 (ip), vehicle: saline) is 90 % of control.

For the compound `CCNNC(=O)[C@@H]1[C@H](c2cc(OC)c(OC)c(OC)c2)c2cc3c(cc2[C@H](O)[C@H]1CO)OCO3`, the T/C under setting [2] was 100 % of control; the T/C under setting [3] is 100 % of control; the T/C under setting [4] was 96 % of control and 100 % of control and 111 % of control; the T/C under setting [5] is 100 % of control (2×) and 103 % of control; the T/C under setting [6] was 103 % of control.

With `N=[N+]=CC(=O)OCC(N)C(=O)O` (stereo unspecified), the T/C is 94 % of control (dose: 0.5 mg/kg/injection, schedule: Q01DX010 (ip), vehicle: saline); 103 % of control and 120 % of control under setting [7]; 120 % of control and 123 % of control under setting [2]; 117 % of control under setting [3].

With `COC1C(OC(N)=O)C(O)C(Oc2ccc3c(O)c(NC(=O)c4ccc(O)c(CC=C(C)C)c4)c(=O)oc3c2C)OC1(C)C` (stereo unspecified), the T/C reads like this: under setting [1], 100 % of control; under setting [8], 104 % of control; under setting [9], 100 % of control; under setting [10], 103 % of control and 104 % of control; under setting [11], 96 % of control; (dose: 200.0 mg/kg/injection, schedule: Q01DX010 (ip), vehicle: saline) 92 % of control.

`NC(Cc1ccc(N(CCCl)CCCl)cc1)C(=O)O` (stereo unspecified): the T/C (dose: 0.5 mg/kg/injection, schedule: Q01DX010 (ip), vehicle: alkali diluted with saline) was 102 % of control and 111 % of control; the T/C (dose: 1.0 mg/kg/injection, schedule: Q01DX010 (ip), vehicle: alkali diluted with saline) was 104 % of control; the T/C under setting [12] was 100 % of control and 119 % of control; the T/C (dose: 2.0 mg/kg/injection, schedule: Q01DX010 (ip), vehicle: alkali diluted with saline) is 99 % of control; the T/C under setting [13] was 100 % of control; the T/C (dose: 4.0 mg/kg/injection, schedule: Q01DX010 (ip), vehicle: alkali diluted with saline) is 101 % of control. Under setting [14], the T/C is 100 % of control.

As to `CS(=O)(=O)OCCCl`, the T/C is, setting by setting: (dose: 18.8 mg/kg/injection, schedule: Q01DX010 (ip), vehicle: saline) 89 % of control; under setting [15], 100 % of control; (dose: 75.0 mg/kg/injection, schedule: Q01DX010 (ip), vehicle: saline) 92 % of control.

For `O=C(O)c1[nH]c(=O)[nH]c(=O)c1F`, the T/C under setting [12] was 86 % of control.

As for `CO[C@H]1C[C@H](O[C@H]2CC[C@]3(C=O)[C@H]4CC[C@]5(C)[C@@H](C6=CC(=O)OC6)CC[C@]5(O)[C@@H]4CC[C@]3(O)C2)O[C@H](C)[C@H]1O`, the T/C runs as follows: (dose: 1.25 mg/kg/injection, schedule: Q01DX010 (sc), vehicle: saline) 92 % of control; under setting [16], 103 % of control; under setting [17], 92 % of control; under setting [18], 89 % of control.

As for `O=c1[nH]c(=O)n(C2CC(O)C(CO)O2)cc1F` (stereo unspecified), the T/C is 107 % of control and 111 % of control under setting [13]; 111 % of control under setting [14]; 153 % of control (dose: 20.0 mg/kg/injection, schedule: Q01DX010 (ip), vehicle: saline); 169 % of control under setting [15].

As for `O=c1[nH]c(=O)n(C2CC(O)C(CO)O2)cc1Br` (stereo unspecified), the T/C by setting is: under setting [19], 121 % of control; under setting [20], 107 % of control; under setting [21], 96 % of control.

With `COS(C)(=O)=O`, the T/C is 88 % of control and 100 % of control under setting [8]; 88 % of control under setting [9]; 92 % of control under setting [10].

With `CC(=O)c1cccc(NC2C(N)C(NC(=O)N(C)C)(C(C)O)C(C)(O)C2(O)COC(=O)c2c(C)cccc2O)c1` (stereo unspecified), the T/C (dose: 0.25 mg/kg/injection, schedule: Q01DX010 (ip), vehicle: saline) is 90 % of control.

Turning to `O=C(OCC1OC(n2cnc3c(=S)nc[nH]c32)C(OC(=O)c2ccccc2)C1OC(=O)c1ccccc1)c1ccccc1` (stereo unspecified), the T/C reads like this: (dose: 7.8 mg/kg/injection, schedule: Q01DX010 (ip), vehicle: saline) 87 % of control; under setting [22], 91 % of control; under setting [23], 87 % of control; under setting [19], 100 % of control; under setting [20], 91 % of control; under setting [21], 87 % of control.

As for `OC(CBr)C(O)C(O)C(O)CBr` (stereo unspecified), under setting [11], the T/C was 100 % of control.

For `CCOC(C)C(/C=N/NC(N)=S)=NNC(N)=S` (stereo unspecified), the T/C is, setting by setting: (dose: 15.0 mg/kg/injection, schedule: Q01DX010 (ip), vehicle: saline) 91 % of control; (dose: 30.0 mg/kg/injection, schedule: Q01DX010 (ip), vehicle: saline) 100 % of control; (dose: 60.0 mg/kg/injection, schedule: Q01DX010 (ip), vehicle: saline) 100 % of control; (dose: 120.0 mg/kg/injection, schedule: Q01DX010 (ip), vehicle: saline) 95 % of control.

`COC12C(COC(N)=O)C3=C(C(=O)C(C)=C(N)C3=O)N1CC1C2N1C` (stereo unspecified): the T/C reads like this: under setting [16], 108 % of control; under setting [17], 108 % of control; under setting [18], 100 % of control.

In the case of `CCNc1nncs1`, the T/C was 100 % of control under setting [22] and 100 % of control under setting [23].

For `CCCCn1cnc2c(=S)nc[nH]c21`, the T/C is 96 % of control under setting [6]; 92 % of control and 96 % of control (dose: 64.0 mg/kg/injection, schedule: Q01DX010 (ip), vehicle: saline); 96 % of control and 100 % of control (dose: 128.0 mg/kg/injection, schedule: Q01DX010 (ip), vehicle: saline).

For `COC(=O)c1[nH]c(=O)[nH]c(=O)c1F`, the T/C by setting is: under setting [7], 103 % of control; under setting [3], 93 % of control.

Consider `CC(C)(C)CC(C)(C)c1ccc(O)cc1`, for which the T/C was 100 % of control under setting [19]; 100 % of control under setting [20]; 107 % of control under setting [21]; 111 % of control (dose: 500.0 mg/kg/injection, schedule: Q01DX010 (ip), vehicle: saline).

Turning to `CCOC(=O)NP(=O)(N1CC1(C)C)N1CC1(C)C` (stereo unspecified), the T/C runs as follows: under setting [23], 107 % of control; under setting [19], 92 % of control; under setting [20], 103 % of control.

In the case of `CSc1ncnc2c1ncn2C1OC(CO)C(O)C1O` (stereo unspecified), the T/C reads like this: under setting [3], 100 % of control; under setting [4], 100 % of control; under setting [5], 96 % of control and 100 % of control.

These data come from PubChem BioAssay AID314 (DTP/NCI, 2004).
